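Each compound was tested at five concentrations against cells in 96-well plates for 48 hours. TGI: total growth inhibition.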
Assays:
Test in all cases: NCI anticancer screen, dose series, 48 h
[1] = test system: CCRF-CEM leukemia
[2] = test system: MALME-3M melanoma
[3] = test system: OVCAR-4 ovarian
[4] = test system: CAKI-1 renal
[5] = test system: MOLT-4 leukemia
[6] = test system: HCT-15 colon
[7] = test system: LOX IMVI melanoma
[8] = test system: MCF7 breast
[9] = test system: SNB-19 CNS
[10] = test system: K-562 leukemia
[11] = test system: UO-31 renal
[12] = test system: RPMI-8226 leukemia
[13] = test system: SK-MEL-28 melanoma
[14] = test system: EKVX NSCLC
[15] = test system: NCI/ADR-RES ovarian
[16] = test system: KM12 colon
[17] = test system: RXF 393 renal
[18] = test system: SF-268 CNS
[19] = test system: IGROV1 ovarian
[20] = test system: HL-60(TB) leukemia
[21] = test system: SF-539 CNS
[22] = test system: MDA-N
[23] = test system: OVCAR-3 ovarian
[24] = test system: SK-MEL-5 melanoma
[25] = test system: SK-MEL-2 melanoma
[26] = test system: T-47D breast
[27] = test system: HOP-92 NSCLC
[28] = test system: U251 CNS
[29] = test system: OVCAR-8 ovarian
[30] = test system: COLO 205 colon
[31] = test system: DU-145 prostate
[32] = test system: A549 NSCLC
[33] = test system: HCT-116 colon
[34] = test system: SNB-75 CNS
[35] = test system: BT-549 breast
[36] = test system: HOP-62 NSCLC
[37] = test system: UACC-257 melanoma
[38] = test system: TK-10 renal
[39] = test system: MDA-MB-435
[40] = test system: NCI-H460 lung
[41] = test system: SR leukemia
[42] = test system: M14 melanoma
[43] = test system: HT29 colon
[44] = test system: PC-3 prostate
[45] = test system: HS 578T breast
[46] = test system: SF-295 CNS
[47] = test system: OVCAR-5 ovarian
[48] = test system: A498 renal
[49] = test system: NCI-H226 lung
[50] = test system: 786-0 renal
[51] = test system: SN12C renal
[52] = test system: NCI-H23 lung
[53] = test system: SW-620 colon
[54] = test system: MDA-MB-231 breast
[55] = test system: UACC-62 melanoma
[56] = test system: SK-OV-3 ovarian
[57] = test system: NCI-H522 lung
[58] = test system: ACHN renal

N#CC1=C(N)OC2=C(CSc3ccccc32)C1c1ccc(Br)cc1 (centres undefined)
TGI [1]: 6.83 µM | TGI [2]: 30.7 µM | TGI [3]: 19.3 µM | TGI [4]: 26.4 µM | TGI [5]: 8.44 µM | TGI [6]: 24.5 µM | TGI [7]: 11.2 µM | TGI [8]: 13.8 µM | TGI [9]: 51.9 µM | TGI [10]: 11.3 µM | TGI [11]: 26.7 µM | TGI [12]: 5.52 µM | TGI [13]: 28 µM | TGI [14]: 11.4 µM | TGI [15]: 7.75 µM | TGI [16]: 44.6 µM | TGI [17]: 16.3 µM | TGI [18]: 25.6 µM | TGI [19]: 25.8 µM | TGI [20]: 6.17 µM | TGI [21]: 13.7 µM | TGI [22]: 14.4 µM | TGI [23]: 21.6 µM | TGI [24]: 25.7 µM | TGI [25]: 23 µM | TGI [26]: 25.8 µM | TGI [27]: 21.5 µM | TGI [28]: 19.9 µM | TGI [29]: 14.8 µM | TGI [30]: 10.8 µM | TGI [31]: > 100 µM | TGI [32]: 27.2 µM | TGI [33]: 14.2 µM | TGI [34]: 21.7 µM | TGI [35]: 28.4 µM | TGI [36]: 32.7 µM | TGI [37]: 30.2 µM | TGI [38]: 31.2 µM | TGI [39]: 7.82 µM | TGI [40]: 26.8 µM | TGI [41]: 10.3 µM | TGI [42]: 39.8 µM | TGI [43]: 18.4 µM | TGI [44]: 16.8 µM | TGI [45]: > 100 µM | TGI [46]: 29 µM | TGI [47]: 32.7 µM | TGI [48]: 27.2 µM | TGI [49]: 27.9 µM | TGI [50]: 22.8 µM | TGI [51]: 20.4 µM | TGI [52]: 26.4 µM | TGI [53]: 23.8 µM | TGI [54]: 29.3 µM | TGI [55]: 21.8 µM | TGI [56]: 27 µM

CCOC(=O)c1cc(=C2\CCN(CC(C)CC)C2=S)/c(=C(/O)CC)[nH]1 (centres undefined)
TGI [1]: 21.7 µM | TGI [2]: 23.3 µM | TGI [3]: 30.9 µM | TGI [4]: 26.4 µM | TGI [5]: 24.6 µM | TGI [6]: 25.8 µM | TGI [7]: 41.2 µM | TGI [8]: 61 µM | TGI [9]: 34.7 µM | TGI [10]: 37.8 µM | TGI [11]: 35.4 µM | TGI [12]: 25.4 µM | TGI [13]: 34.8 µM | TGI [14]: 35.3 µM | TGI [15]: 75.3 µM | TGI [16]: 32 µM | TGI [17]: 44.9 µM | TGI [18]: 46.3 µM | TGI [19]: 37.1 µM | TGI [20]: 27.3 µM | TGI [21]: 24.9 µM | TGI [22]: 28.2 µM | TGI [25]: 44.4 µM | TGI [26]: 30.9 µM | TGI [27]: 39.6 µM | TGI [28]: 26.5 µM | TGI [29]: 56.6 µM | TGI [30]: 24.1 µM | TGI [31]: 30.2 µM | TGI [32]: > 100 µM | TGI [33]: 28.7 µM | TGI [34]: 36.9 µM | TGI [35]: 35.4 µM | TGI [37]: 31.4 µM | TGI [57]: 36.4 µM | TGI [38]: 28.6 µM | TGI [39]: 29.6 µM | TGI [58]: 28.9 µM | TGI [40]: 40.8 µM | TGI [41]: 26.3 µM | TGI [43]: 48 µM | TGI [44]: 38.8 µM | TGI [45]: 59.6 µM | TGI [46]: 34.4 µM | TGI [48]: 29 µM | TGI [49]: 45.3 µM | TGI [50]: 30.5 µM | TGI [51]: 39.2 µM | TGI [52]: 33.6 µM | TGI [53]: 25.9 µM | TGI [54]: 31.8 µM | TGI [55]: 30.8 µM | TGI [56]: 48.4 µM
